Test results from patent US20020137929A1, “1 - (3-heterocyclylphenyl) isothiourea, -isourea, -guanidine and -amidine herbicidal agents” (Intellectual Property Department, BASF Aktiengesellschaft, priority 1998, published 2002).

What was measured:
ZEAMX (Corn, Field) [1] = assay: Preemergence herbicidal evaluation; assay type: in vivo, Zea mays; conditions: rated 4-5 weeks after treatment
How it was run: (§1)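 Steps: mix seeds into potting soil; plant atop ~1 inch soil; spray compound in aqueous acetone (~0.0156-0.500 kg/ha equivalent); maintain in greenhouse with watering; rate visually 0-9 versus control at 4-5 weeks.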

ORYSAT (Rice, Tebonnet) = assay: Postemergence herbicidal evaluation; assay type: in vivo, Oryza sativa, (L.) Tebonnet; conditions: postemergence
How it was run: (§2)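 Visual 0–9 rating versus control (stand, vigor, malformation, size, chlorosis, overall appearance), taken four to five weeks post-spray. Two-week-old seedlings received roughly 0.0156–0.500 kg/ha active in acetone/water (50/50) with 0.5% TWEEN 20 via nozzle at 40 psi.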

SETVI (Foxtail, Green) [2] = assay: Preemergence herbicidal evaluation; assay type: in vivo, Setaria viridis; conditions: rated 4-5 weeks after treatment
How it was run: as §1

CYPIR (Rice Flatsedge) = assay: Preemergence weed control under flooded paddy conditions; assay type: in vivo, Cyperus iria; conditions: rated 3-4 weeks after treatment
How it was run: (§3)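 Herbicidal effect is scored visually on a 0-9 scale against an untreated control, three to four weeks after compounds are pipetted into the flood water (1.5 to 3 cm deep) over seeds planted in silt loam at 0.5 cm depth. Rates: about 0.0313 to 0.500 kg/ha.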

[3] = test system: ECHORC (Watergrass (Calif.)); assay: as above; assay type: in vivo, Echinochloa oryzoides; conditions: rated 3-4 weeks after treatment
How it was run: as §3

ECHCG (Barnyardgrass) = assay: Preemergence herbicidal evaluation; assay type: in vivo, Echinochloa crus-galli; conditions: rated 4-5 weeks after treatment
How it was run: as §1

CYPSE (Flatsedge) = assay: Preemergence weed control under flooded paddy conditions; assay type: in vivo, Cyperus serotinus; conditions: rated 3-4 weeks after treatment
How it was run: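 Visual injury scored 0-9 against control three to four weeks post-treatment, greenhouse-grown. Application: acetone/water (50/50) solutions dosed directly into flood water (1.5-3 cm over silt loam, planted top 0.5 cm), roughly 0.0313 to 0.500 kg/ha active ingredient.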

ZEAMX (Corn, Field) [4] = assay: Postemergence herbicidal evaluation; assay type: in vivo, Zea mays; conditions: postemergence
How it was run: as §2

SETVI (Foxtail, Green) [5] = assay: Postemergence herbicidal evaluation; assay type: in vivo, Setaria viridis; conditions: postemergence
How it was run: as §2

[6] = test system: TRZAWR (Wheat, Winter, cv Riband); assay: Preemergence herbicidal evaluation; assay type: in vivo, Triticum aestivum; conditions: rated 4-5 weeks after treatment
How it was run: as §1

## CCOC(=O)CN1C(=O)C(OC)SC1=Nc1cc(-n2c(=O)cc(C(F)(F)F)n(C)c2=O)c(F)cc1Cl (stereo not drawn) [Compound 160, Ethyl 2-{{2-chloro-5-[3,6-dihydro-3-methyl-2,6-dioxo-4-(trifluoromethyl)-1(2H)-pyrimidinyl]-4-fluorophenyl}imino}-5-methoxy-4-oxo-3-thiazolidineacetate]
ZEAMX (Corn, Field) [1]; 0.0156 kg/ha
  Preemergence herbicidal rating ZEAMX: 0.0
ZEAMX (Corn, Field) [1]; 0.0313 kg/ha
  Preemergence herbicidal rating ZEAMX: 0.0
ZEAMX (Corn, Field) [1]; 0.0625 kg/ha
  Preemergence herbicidal rating ZEAMX: 1.0
ZEAMX (Corn, Field) [1]; 0.1250 kg/ha
  Preemergence herbicidal rating ZEAMX: 2.0
ZEAMX (Corn, Field) [1]; 0.2500 kg/ha
  Preemergence herbicidal rating ZEAMX: 5.0
ZEAMX (Corn, Field) [1]; 0.5000 kg/ha
  Preemergence herbicidal rating ZEAMX: 8.0
ORYSAT (Rice, Tebonnet); rate 0.0156 kg/ha
  Herbicidal rating ORYSAT: 2.0
ORYSAT (Rice, Tebonnet); rate 0.0313 kg/ha
  Herbicidal rating ORYSAT: 3.5
ORYSAT (Rice, Tebonnet); rate 0.0625 kg/ha
  Herbicidal rating ORYSAT: 4.5
ORYSAT (Rice, Tebonnet); rate 0.1250 kg/ha
  Herbicidal rating ORYSAT: 4.5
SETVI (Foxtail, Green) [2]; 0.0156 kg/ha
  Preemergence herbicidal rating SETVI: 0.0
SETVI (Foxtail, Green) [2]; 0.0313 kg/ha
  Preemergence herbicidal rating SETVI: 1.0
SETVI (Foxtail, Green) [2]; 0.0625 kg/ha
  Preemergence herbicidal rating SETVI: 7.0
SETVI (Foxtail, Green) [2]; 0.1250 kg/ha
  Preemergence herbicidal rating SETVI: 7.0
SETVI (Foxtail, Green) [2]; 0.2500 kg/ha
  Preemergence herbicidal rating SETVI: 7.0
SETVI (Foxtail, Green) [2]; 0.5000 kg/ha
  Preemergence herbicidal rating SETVI: 9.0
CYPIR (Rice Flatsedge); 0.0313 kg/ha
  herbicidal effect rating, CYPIR: 0.0
CYPIR (Rice Flatsedge); 0.0625 kg/ha
  herbicidal effect rating, CYPIR: 3.0
CYPIR (Rice Flatsedge); 0.1250 kg/ha
  herbicidal effect rating, CYPIR: 6.0
CYPIR (Rice Flatsedge); 0.2500 kg/ha
  herbicidal effect rating, CYPIR: 9.0
[3]; 0.0313 kg/ha
  herbicidal effect rating, ECHORC: 0.0
[3]; 0.0625 kg/ha
  herbicidal effect rating, ECHORC: 0.0
[3]; 0.1250 kg/ha
  herbicidal effect rating, ECHORC: 2.0
[3]; 0.2500 kg/ha
  herbicidal effect rating, ECHORC: 4.0
ECHCG (Barnyardgrass); 0.0156 kg/ha
  Preemergence herbicidal rating ECHCG: 0.0
ECHCG (Barnyardgrass); 0.0313 kg/ha
  Preemergence herbicidal rating ECHCG: 0.0
ECHCG (Barnyardgrass); 0.0625 kg/ha
  Preemergence herbicidal rating ECHCG: 1.0
ECHCG (Barnyardgrass); 0.1250 kg/ha
  Preemergence herbicidal rating ECHCG: 2.0
ECHCG (Barnyardgrass); 0.2500 kg/ha
  Preemergence herbicidal rating ECHCG: 9.0
ECHCG (Barnyardgrass); 0.5000 kg/ha
  Preemergence herbicidal rating ECHCG: 9.0
CYPSE (Flatsedge); 0.0313 kg/ha
  herbicidal effect rating, CYPSE: 3.0
CYPSE (Flatsedge); 0.0625 kg/ha
  herbicidal effect rating, CYPSE: 3.0
CYPSE (Flatsedge); 0.1250 kg/ha
  herbicidal effect rating, CYPSE: 3.0
CYPSE (Flatsedge); 0.2500 kg/ha
  herbicidal effect rating, CYPSE: 3.0
ZEAMX (Corn, Field) [4]; rate 0.0156 kg/ha
  Herbicidal rating ZEAMX: 6.5
ZEAMX (Corn, Field) [4]; rate 0.0313 kg/ha
  Herbicidal rating ZEAMX: 7.0
ZEAMX (Corn, Field) [4]; rate 0.0625 kg/ha
  Herbicidal rating ZEAMX: 7.0
ZEAMX (Corn, Field) [4]; rate 0.1250 kg/ha
  Herbicidal rating ZEAMX: 7.5
SETVI (Foxtail, Green) [5]; rate 0.0156 kg/ha
  Herbicidal rating SETVI: 0.0
SETVI (Foxtail, Green) [5]; rate 0.0313 kg/ha
  Herbicidal rating SETVI: 6.0
SETVI (Foxtail, Green) [5]; rate 0.0625 kg/ha
  Herbicidal rating SETVI: 9.0
SETVI (Foxtail, Green) [5]; rate 0.1250 kg/ha
  Herbicidal rating SETVI: 9.0
[6]; 0.0156 kg/ha
  Preemergence herbicidal rating TRZAWR: 0.0
[6]; 0.0313 kg/ha
  Preemergence herbicidal rating TRZAWR: 0.0
[6]; 0.0625 kg/ha
  Preemergence herbicidal rating TRZAWR: 1.0
[6]; 0.1250 kg/ha
  Preemergence herbicidal rating TRZAWR: 1.0
[6]; 0.2500 kg/ha
  Preemergence herbicidal rating TRZAWR: 4.0
[6]; 0.5000 kg/ha
  Preemergence herbicidal rating TRZAWR: 7.0

## CC(C)N1C(=O)CSC1=Nc1cc(-n2c(=O)cc(C(F)(F)F)n(C)c2=O)c(F)cc1Cl [Compound 164, 3-{4-Chloro-2-fluoro-5-[(3-isopropyl-4-oxo-2-thiazolidinylidene)amino]phenyl}-1-methyl-6-(trifluoromethyl)-2,4(1H,3H)-pyrimidinedione]
ZEAMX (Corn, Field) [1]; 0.0156 kg/ha
  Preemergence herbicidal rating ZEAMX: 2.0
ZEAMX (Corn, Field) [1]; 0.0313 kg/ha
  Preemergence herbicidal rating ZEAMX: 3.0
ZEAMX (Corn, Field) [1]; 0.0625 kg/ha
  Preemergence herbicidal rating ZEAMX: 6.0
ZEAMX (Corn, Field) [1]; 0.1250 kg/ha
  Preemergence herbicidal rating ZEAMX: 7.0
ZEAMX (Corn, Field) [1]; 0.2500 kg/ha
  Preemergence herbicidal rating ZEAMX: 8.0
ZEAMX (Corn, Field) [1]; 0.5000 kg/ha
  Preemergence herbicidal rating ZEAMX: 9.0
ORYSAT (Rice, Tebonnet); rate 0.0156 kg/ha
  Herbicidal rating ORYSAT: 2.5
ORYSAT (Rice, Tebonnet); rate 0.0313 kg/ha
  Herbicidal rating ORYSAT: 4.0
ORYSAT (Rice, Tebonnet); rate 0.0625 kg/ha
  Herbicidal rating ORYSAT: 5.0
ORYSAT (Rice, Tebonnet); rate 0.1250 kg/ha
  Herbicidal rating ORYSAT: 5.0
SETVI (Foxtail, Green) [2]; 0.0156 kg/ha
  Preemergence herbicidal rating SETVI: 4.0
SETVI (Foxtail, Green) [2]; 0.0313 kg/ha
  Preemergence herbicidal rating SETVI: 9.0
SETVI (Foxtail, Green) [2]; 0.0625 kg/ha
  Preemergence herbicidal rating SETVI: 9.0
SETVI (Foxtail, Green) [2]; 0.1250 kg/ha
  Preemergence herbicidal rating SETVI: 9.0
SETVI (Foxtail, Green) [2]; 0.2500 kg/ha
  Preemergence herbicidal rating SETVI: 9.0
SETVI (Foxtail, Green) [2]; 0.5000 kg/ha
  Preemergence herbicidal rating SETVI: 9.0
CYPIR (Rice Flatsedge); 0.0313 kg/ha
  herbicidal effect rating, CYPIR: 3.0
CYPIR (Rice Flatsedge); 0.0625 kg/ha
  herbicidal effect rating, CYPIR: 5.0
CYPIR (Rice Flatsedge); 0.1250 kg/ha
  herbicidal effect rating, CYPIR: 6.0
CYPIR (Rice Flatsedge); 0.2500 kg/ha
  herbicidal effect rating, CYPIR: 9.0
[3]; 0.0313 kg/ha
  herbicidal effect rating, ECHORC: 6.0
[3]; 0.0625 kg/ha
  herbicidal effect rating, ECHORC: 7.0
[3]; 0.1250 kg/ha
  herbicidal effect rating, ECHORC: 9.0
[3]; 0.2500 kg/ha
  herbicidal effect rating, ECHORC: 9.0
ECHCG (Barnyardgrass); 0.0156 kg/ha
  Preemergence herbicidal rating ECHCG: 0.0
ECHCG (Barnyardgrass); 0.0313 kg/ha
  Preemergence herbicidal rating ECHCG: 7.0
ECHCG (Barnyardgrass); 0.0625 kg/ha
  Preemergence herbicidal rating ECHCG: 7.0
ECHCG (Barnyardgrass); 0.1250 kg/ha
  Preemergence herbicidal rating ECHCG: 9.0
ECHCG (Barnyardgrass); 0.2500 kg/ha
  Preemergence herbicidal rating ECHCG: 9.0
ECHCG (Barnyardgrass); 0.5000 kg/ha
  Preemergence herbicidal rating ECHCG: 9.0
CYPSE (Flatsedge); 0.0313 kg/ha
  herbicidal effect rating, CYPSE: 0.0
CYPSE (Flatsedge); 0.0625 kg/ha
  herbicidal effect rating, CYPSE: 0.0
CYPSE (Flatsedge); 0.1250 kg/ha
  herbicidal effect rating, CYPSE: 3.0
CYPSE (Flatsedge); 0.2500 kg/ha
  herbicidal effect rating, CYPSE: 7.0
ZEAMX (Corn, Field) [4]; rate 0.0156 kg/ha
  Herbicidal rating ZEAMX: 5.0
ZEAMX (Corn, Field) [4]; rate 0.0313 kg/ha
  Herbicidal rating ZEAMX: 5.0
ZEAMX (Corn, Field) [4]; rate 0.0625 kg/ha
  Herbicidal rating ZEAMX: 5.5
ZEAMX (Corn, Field) [4]; rate 0.1250 kg/ha
  Herbicidal rating ZEAMX: 6.5
SETVI (Foxtail, Green) [5]; rate 0.0156 kg/ha
  Herbicidal rating SETVI: 4.0
SETVI (Foxtail, Green) [5]; rate 0.0313 kg/ha
  Herbicidal rating SETVI: 7.0
SETVI (Foxtail, Green) [5]; rate 0.0625 kg/ha
  Herbicidal rating SETVI: 9.0
SETVI (Foxtail, Green) [5]; rate 0.1250 kg/ha
  Herbicidal rating SETVI: 6.0
[6]; 0.0156 kg/ha
  Preemergence herbicidal rating TRZAWR: 1.0
[6]; 0.0313 kg/ha
  Preemergence herbicidal rating TRZAWR: 1.0
[6]; 0.0625 kg/ha
  Preemergence herbicidal rating TRZAWR: 4.0
[6]; 0.1250 kg/ha
  Preemergence herbicidal rating TRZAWR: 6.0
[6]; 0.2500 kg/ha
  Preemergence herbicidal rating TRZAWR: 7.0
[6]; 0.5000 kg/ha
  Preemergence herbicidal rating TRZAWR: 9.0
